{"source": "paper PMC12598851", "about": "“Exploiting Avidity Effects for the Discovery of Low Affinity Protein-Binding Fragments” (Journal of Medicinal Chemistry, 2025)", "key": {"[1]": {"molecular_target": "T1, glutathione S-transferase (GST) (Schistosoma japonicum, UniProt P08515)", "T1 construct": "His6 (C); made in house; host or cells: E. coli BL21 (DE3) codon plus RP", "test": "Bead pull-down of compound 2 beads with GST as off-target control", "type": "binding", "details": "GST 1 μM, stained with labeled antibody"}, "[2]": {"molecular_target": "T2, tetrameric streptavidin (SA-647) (Streptomyces avidinii, UniProt P22629)", "T2 construct": "purchased ThermoFisher S3235", "test": "Bead pull-down: SA-647 retained by compound-displaying TentaGel beads, plate reader", "type": "binding", "from_the_text": "Compounds 2 and 3 were then constructed on 10 μm TentaGel beads via straightforward solid-phase synthesis, along with acetylated beads, which as a “blank” (Figure c). TentaGel beads consist of an amino-polystyrene core onto which is grafted a thick layer of amine-terminated PEG chains. An additional mini-PEG spacer was incorporated prior to coupling the compounds to further improve spatial accessibility and aqueous display of the compounds (see Experimental Section for detailed synthesis). The beads were incubated with AlexaFluor 647-conjugated SA (SA-647) in phosphate-buffered saline supplemented with 0.05% Tween 20 (PBST) for 1 h at room temperature in the dark. Following incubation, the beads were washed thoroughly (see Experimental Section for a detailed protocol), then resuspended in PBST. The amount of fluorescent SA retained by the resin was analyzed using a Tecan multiwell plate reader equipped with appropriate excitation and emission filters (excitation at 650 nm, emission at 665 nm).\nGeneral notes: • At each step, contents were mixed by pipetting up and down 3–5 times. • All steps following the addition of SA-647 were conducted in the dark. • SA-647 and mSA-647 were purchased from commercial sources; (SA-647: ThermoFisher cat#S3235, mSA-647: Millipore SAE178).\nA 96-well Multiscreen hydrophilic assay plate (MilliporeSigma, MSBVN12) was activated by treating each well with 150 μL of 70% (v/v) ethanol in water. The solvent was removed under vacuum, and the wells were washed with PBST (3 × 150 μL). Fresh PBST (150 μL) was then added to each well.\nThe plate was drained and washed again with PBST (3 × 150 μL), followed by the addition of 150 μL PBST per well. Plates were shaken overnight at ambient temperature on an orbital plate shaker.\nThe next day, wells were drained and incubated with 150 μL of a 1:1 (v/v) solution of PBST:PBS blocking buffer (Thermo Scientific, 37538) for 1 h at room temperature. After removal of the blocking buffer, 100 μL PBST was added to each well and mixed thoroughly. A 20 μL aliquot from each well was transferred to a black 384-well flat-bottom plate (Corning, 3820) for background (blank) measurements.\nThe remaining PBST was removed, and the beads were incubated with SA-647 (500 nM in 1:1 PBST/blocking buffer, 150 μL per well) for 1 h at room temperature. After incubation, wells were washed with PBST while shaking (3 × 20 min). A final 150 μL PBST wash was performed and drained. Fresh PBST (80 μL) was added to each well, and the contents were transferred to labeled PCR tubes. Samples were briefly vortexed and mixed by pipetting.\nEach sample was transferred to a black 384-well plate in triplicate (3 × 20 μL per well). The plate was sealed with a foil sticker and centrifuged at 250g for 1 min. Fluorescence intensity was measured using a TECAN plate reader. Background fluorescence (from blank wells) was subtracted prior to further data analysis."}, "[3]": {"molecular_target": "T3, biotin-binding surface of SA (Streptomyces avidinii, UniProt P22629)", "T3 construct": "purchased ThermoFisher S3235", "test": "Competition assay with biotin on beads", "details": "SA-647 500 nM pretreated with biotin 10 μM, 30 min", "experimental": "To determine if ligand 2 interacts with the biotin-binding surface of SA, we preincubated SA-647 with excess biotin and repeated the binding assay.\nThis assay was conducted following the exact same procedure described above using two samples: SA-647 (500 nM) alone, and SA-647 (500 nM) that had been pretreated with biotin (10 μM) for 30 min at room temperature. Each sample was added to separate wells of a microtiter plate."}, "[4]": {"molecular_target": "T2, tetrameric streptavidin (SA-647)", "test": "Bead pull-down: SA-647 retained by compound-displaying TentaGel beads, plate reader", "type": "binding", "details": "SA-647 50 nM, about 14,000-fold below the intrinsic KD"}}, "note": "“And” between values parts separate entries of the source, which are not always exact repeats. Identical values can stand only once. “Also recorded” adds a separate entry of the source."}
{"smiles": "CC(=O)N(Cc1cccnc1)Cc1nc(C(=O)N(C)CC(=O)NCCOCCOCC(=O)NCC(N)=O)cs1", "note": "[Compound 2]", "values": [{"measurement": "binding of GST to bead-displayed compound", "setting": "[1]", "result": "No detectable signal"}, {"measurement": "Fluorescence intensity, Average", "setting": "[2]; SA-647 500 nM, 12 replicates, after background subtraction, Z' calculation", "result": 14647}, {"measurement": "binding of SA-647 to bead-displayed compound (fluorescence)", "setting": "[2]; SA-647 500 nM, 1 h, PBST, room temperature, after washing", "result": "readily detectable; also recorded: strong binding"}, {"measurement": "Fluorescence intensity, individual replicate", "setting": "[2]; SA-647 500 nM, replicates 1-12, after background subtraction, Z' calculation", "result": "15421 and 12975 and 13104 and 12492 and 14298 and 14769 and 15364 and 16337 and 17794 and 14546 and 14869 and 13797"}, {"measurement": "fluorescence after 24 h in buffer lacking protein compared with directly after washing", "setting": "[2]; beads washed, resuspended in PBST lacking protein for 24 h", "result": "almost identical"}, {"measurement": "retained SA-647 at 30% ligand density", "setting": "[2]; compound linked to only 30% of the sites on the beads, SA-647 500 nM", "result": "almost undetectable above background"}, {"measurement": "dependence of SA-647 retention on ligand density", "setting": "[2]; site functionalization 100% to 5%, SA-647 500 nM", "result": "strongly density-dependent"}, {"measurement": "retention of SA-647 preincubated with excess biotin", "setting": "[3]", "result": "ablated retention"}, {"measurement": "binding of SA-647 to bead-displayed compound at low protein concentration", "setting": "[4]", "result": "above background binding was readily detectable"}]}
